Source: article PMC10587126, “Molecular hybridization strategy for tuning bioactive peptide function” (Communications Biology, 2023)
No end group written: not given here.

How the values were obtained:
[1] = test system: Pseudomonas aeruginosa PAO1; experiment: Broth microdilution MIC, ESKAPE pathogens; format: cell-based; settings: strain not given (PAO1 and PA14 tested), LB, 37 °C, 24 h
Experimental: Peptides were tested in antimicrobial assays against Serratia marcescens ATCC 4112, Enterobacter cloacae β-12, Micrococcus luteus A270, Bacillus megaterium ATCC 10778, Bacillus subtilis ATCC 6633, Candida albicans MDM8, Candida tropicalis IOC 4560, Acinetobacter baumannii ATCC 19606, Escherichia coli ATCC 11775, Escherichia coli AIC221, Escherichia coli AIC222, Klebsiella pneumoniae ATCC 13883, Staphylococcus aureus ATCC 12600, Pseudomonas aeruginosa PAO1, and Pseudomonas aeruginosa PA14. All microorganisms were obtained from the American Type Culture Collection (ATCC), Instituto Butantan, São Paulo, Brazil, and the clinical isolate strains were donated from the Oswaldo Cruz Institute Collection (IOC), Rio de Janeiro, Brazil.
The minimal inhibitory concentration (MIC) against the ESKAPE pathogens was determined using the broth microdilution method[7] in Luria-Bertani (LB) medium. The MIC value was defined as the lowest concentration of peptide at which no microbial growth was observed. A. baumannii ATCC 19606, E. coli ATCC 11775, E. coli AIC221, E. coli AIC222, K. pneumoniae ATCC 13883, S. aureus ATCC 12600 P. aeruginosa PAO1, and P. aeruginosa PA14 were incubated on agar plates, and after 24 h, three isolated colonies were inoculated to 5 mL of Luria-Bertani (LB) broth and maintained at 37 °C overnight with shaking. Peptides were then added to 96-well polystyrene microtiter plates at concentrations ranging from 0 to 128 μmol L^−1, and 5 × 10^5 CFU mL^−1 of each bacterium was inoculated in each well. The plates were incubated at 37 °C for 24 h. Bacterial growth was measured using a microplate reader at 610 nm. Three independent replicates were performed.

human erythrocytes = experiment: Hemolytic activity; format: cell-based; settings: 0.1–100 μmol L^−1 in PBS, room temperature, 1 h, absorbance 405 nm
Experimental: Assays against freshly collected human erythrocytes were performed following protocols described by Pedron et al.[54]. Briefly, peptide aliquots at concentrations ranging from 0.1 to 100 μmol L^−1 were incubated with a suspension of erythrocytes at room temperature for 1 h. The samples were then centrifuged, and the absorbance of the supernatant was measured at 405 nm. […] The surfactant SDS and PBS buffer were used as positive[81],[82] and negative controls, respectively. Sodium heparin was used as an anticoagulant when collecting human blood. Three biological repeats were performed. All experiments were performed in accordance with the protocol CEUA/IB #I-1345/15 approved by the Instituto Butantan.

[2] = Resistance to proteolytic degradation in fetal bovine serum; format: in vitro ADME; settings: 25% fetal bovine serum in water, 37 °C
Experimental: Stability assays were performed following the protocol described by Torres et al.[67]. Briefly, a peptide solution was added to GIBCO fetal bovine serum diluted to 25% in water and kept at 37 °C. The degradation kinetics were monitored by liquid chromatography and the percentage of peptide remaining in each case was calculated by integrating the peptide peak area. These experiments were performed as three independent replicates, and aliquots were taken at 0, 0.5, 1, 2, 4, and 6 h.

[3] = test system: MCF-7 human breast cancer cells; experiment: MTT assay, anticancer activity; format: cell-based; settings: 37 °C; for MCF-7 4 h LD50: 4 h of incubation; for MCF-7 24 h LD50: 24 h of incubation
Experimental: The anticancer activity assays were performed using MCF-10A human breast epithelial cells and MCF-7 mammary cancer cells as previously described by Pedron et al.[78]. Briefly, the day before treatment, the cells were incubated at 37 °C and 5% CO2 for 24 h. The cells were treated with peptides ranging from 12.5 to 100 μmol L^−1 (MCF10-A cells) and 0.8 to 100 μmol L^−1 (MCF-7 cells) for 4 h and 24 h at 37 °C, and cell viability was measured using 3-(4,5-Dimethylthiazol-2-yl)-2,5-diphenyltetrazolium bromide (MTT) assays[79],[80]. Three independent replicates were performed in each case.

[4] = Mouse body weight in the skin abscess infection model; format: in vivo
Experimental: The anti-infective activity of the peptides VmCT1, temporin A, VT, and TV against A. baumannii ATCC 19606 was evaluated as described by Torres et al.[7],[83] Bacteria were grown in tryptic soy broth medium to an optical density of 0.5 at 600 nm. Cells were washed twice with sterile phosphate-buffered saline (pH 7.4, 13,000 rpm for 1 min) and resuspended to a final concentration of 1 × 10^7 CFU/20 μL. To generate the skin infection, female CD-1 mice (6-weeks-old) were first anesthetized with isoflurane and their backs were shaved. Using a needle, a superficial linear abrasion was made on the shaved area of the mice to injure just the stratum corneum and the upper layer of the epidermis. An aliquot of 20 μL containing 1 × 10^7 CFU of A. baumannii was then inoculated over the wound area with a pipette tip. The next day, the infected area was treated with the peptides (i.e., VmCT1, temporin A, VT, and TV), which were administered onto the abscess at their MIC. The animals were euthanized, and the scarified skin area removed 2- and 4-days post-infection. The excised area was homogenized using a bead beater for 20 min (25 Hz) and serially diluted for CFU quantification. Eight mice were used per group (n = 8). All experiments were performed in accordance with protocol 806763 approved by the IACUC at the University of Pennsylvania.

[5] = LC peak area, time 0 = 100, 0.5 h, replicate 1
[6] = LC peak area, time 0 = 100, 0.5 h, replicate 2
[7] = LC peak area, time 0 = 100, 0.5 h, replicate 3
[8] = LC peak area, time 0 = 100, 1 h, replicate 1
[9] = LC peak area, time 0 = 100, 1 h, replicate 2
[10] = LC peak area, time 0 = 100, 1 h, replicate 3
[11] = LC peak area, time 0 = 100, 2 h, replicate 1
[12] = LC peak area, time 0 = 100, 2 h, replicate 2
[13] = LC peak area, time 0 = 100, 2 h, replicate 3
[14] = LC peak area, time 0 = 100, 4 h, replicate 1
[15] = LC peak area, time 0 = 100, 4 h, replicate 2
[16] = LC peak area, time 0 = 100, 4 h, replicate 3
[17] = LC peak area, time 0 = 100, 6 h, replicate 1
[18] = LC peak area, time 0 = 100, 6 h, replicate 2
[19] = LC peak area, time 0 = 100, 6 h, replicate 3

Row | Substance | MIC against P. aeruginosa [1] | Hemolytic activity (concentration of peptide needed to kill 10% of red blood cells) (human erythrocytes) | Peptide remaining [2, 5] | Peptide remaining [2, 6] | Peptide remaining [2, 7] | Peptide remaining [2, 8] | Peptide remaining [2, 9] | Peptide remaining [2, 10] | Peptide remaining [2, 11] | Peptide remaining [2, 12] | Peptide remaining [2, 13] | Peptide remaining [2, 14] | Peptide remaining [2, 15] | Peptide remaining [2, 16] | Peptide remaining [2, 17] | Peptide remaining [2, 18] | Peptide remaining [2, 19] | MCF-7 4 h LD50 [3] | MCF-7 24 h LD50 [3] | further results
1 | ILGAILNVLKSLG-NH2 [PV] | 128 µM | 25 µmol/L | 98 | 85 | 88 | 0 | 0 | 0 | 0 | 0 | 0 | 0 | 0 | 0 | 0 | 0 | 0 |  |  | Peptide remaining after 1 h ([2]; LC peak area vs time 0, 1 h, three replicates): totally degraded
2 | FLGTLWGGAKGVF-NH2 [VP] | 128 µM | 100 µmol/L | 24.2 | 22.1 | 20.2 | 14.7 | 16.0 | 11.8 | 3.6 | 3.6 | 4.4 | 0.0 | 0.0 | 0.0 | 0.0 | 0.0 | 0.0 |  |  | 
3 | FLPLIGRVLSGIL-NH2 [Temporin A, reference compound] |  | 0.2 µmol/L | 0 | 0 |  | 0 | 0 | 0 | 0 | 0 | 0 | 0 | 0 | 0 | 0 | 0 | 0 | 50 µmol/L | 50 µmol/L | Peptide remaining after 30 min ([2]; LC peak area vs time 0, 30 min, three replicates): totally degraded; remaining at 0.5 h ([2]; fetal bovine serum, 25% in water, LC peak area, time 0 = 100, 0.5 h, replicate 3, read-out: Peptide remaining): 0%; Mouse body weight, normalized to the weight at the beginning of the experiment ([4]; day 0 = 100, Day 1, replicate 1): 95; Mouse body weight, normalized to the weight at the beginning of the experiment ([4]; day 0 = 100, Day 1, replicate 2): 105; Mouse body weight, normalized to the weight at the beginning of the experiment ([4]; day 0 = 100, Day 1, replicate 3): 100; Mouse body weight, normalized to the weight at the beginning of the experiment ([4]; day 0 = 100, Day 2, replicate 1): 95; Mouse body weight, normalized to the weight at the beginning of the experiment ([4]; day 0 = 100, Day 2, replicate 2): 100; Mouse body weight, normalized to the weight at the beginning of the experiment ([4]; day 0 = 100, Day 2, replicate 3): 100; Mouse body weight, normalized to the weight at the beginning of the experiment ([4]; day 0 = 100, Day 3, replicate 1): 95; Mouse body weight, normalized to the weight at the beginning of the experiment ([4]; day 0 = 100, Day 3, replicate 2): 100; Mouse body weight, normalized to the weight at the beginning of the experiment ([4]; day 0 = 100, Day 3, replicate 3): 95; Mouse body weight, normalized to the weight at the beginning of the experiment ([4]; day 0 = 100, Day 4, replicate 1): 95; Mouse body weight, normalized to the weight at the beginning of the experiment ([4]; day 0 = 100, Day 4, replicate 2): 100; Mouse body weight, normalized to the weight at the beginning of the experiment ([4]; day 0 = 100, Day 4, replicate 3): 95
4 | ILGTILGLLKGL-NH2 [Protonectin, reference compound] | 128 µM | 12.5 µmol/L | 0.0 | 0.0 | 0.0 |  | 0.0 | 0.0 | 0.0 | 0.0 | 0.0 | 0.0 | 0.0 | 0.0 | 0.0 | 0.0 | 0.0 | 25 µmol/L | 25 µmol/L | Degradation in fetal bovine serum (in words) ([2]; exposure for 6 h, LC): quickly degraded; remaining at 1 h ([2]; fetal bovine serum, 25% in water, LC peak area, time 0 = 100, 1 h, replicate 1, read-out: Peptide remaining): 0%
